One series relates to E. coli (ATCC 35150). The format is cell-based. To be noted: 60 minutes. The protocol: (§1) Medium contained 10 mM HEPES buffer at pH 7. […] Colonies were counted after 20 hours.
Series [1] has as its system S. aureus (ATCC 29213). Format: cell-based. How it is done:
as §1

Series [2] in a line: Oil water partition coefficients (octanol/water, HPLC). Format: physicochemical. The note with it: for lipid water partitioning, in words: passage through gastrointestinal barrier and blood brain barrier. The protocol:
Partition coefficients were determined by dissolving the compound in a 1:1 mixture of octanol/water and shaking the solution for 12 hours. HPLC was used to determine the partition coefficient. The reported values are the log of the octanol/water partition

Series [3] is described as follows: pKa by potentiometric titration. The format is physicochemical. To be noted: aqueous solution, ionic strength 0.10, 25° C. The protocol:
PKa's were determined by standard potentiometric titration methods in aqueous solution with an ionic strength of 0.10 at 25° C. Values are reported as log K values of the equilibrium constant.

The subject of series [4] is S. aureus (ATCC 29213). In words: Bacterial survival, toxin diazoxide and antidotes. The format is cell-based. The note with it: 60 minutes. How it is done:
as §1

The test system of series [5] is MPTP induced dopamine loss. The note with it: previously reported; cited from earlier work.
The test system of series [6] is E. coli (GM 7359) alkA tag E. coli mutant. To be noted: 60 minutes.
Method: (§2) Bacteria were inoculated and cultured in nutrient agar for eighteen hours, using a shaking incubator at 140 r.p.m and 35° C. Medium contained 10 mM HEPES buffer at pH 7. Cells were centrifuged twice in Sorval RC-5 centrifuge 12,000 r.pm.×15 minutes at 4° C. and washed twice in 10 uM HEPES buffer. The resuspended cells were counted using a Hemocrit and diluted to a level of 5×10^1 cells per ml in 10 μM HEPES. The cells, the following toxins; methyl viologen (paraquat), methyl viologen (MPP^+), rotenone, daizoxide, streptozotocin and alloxan, and antidotes were added, reaching final volumes of 1 ml in Eppendorf tubes and placed on a rotator at room temperature. 10 μM diethylenetriaminepentaacetic acid was added to the samples to terminate the reactions at the specified times of either twenty or sixty minutes. 300 μL of cells were plated on Petri plates containing nutrient agar and incubated at 35° C. overnight. Colonies were counted after 20 hours. Percentage survival as compared with culture controls is calculated from the means of triplicates in each experimental group.
Series [7] has the same test system. The note with it: 60 minutes. This is another data set of the same source.
Method: as §2
Another series deals with M. Luteus (ATCC 499732). In words: Bacterial survival, toxin diazoxide and antidotes.
Series [8] relates to E. coli (GM 7359) alkA tag E. coli mutant. Kind of series: Bacterial survival, toxin streptozotocin and antidotes. To be noted: 60 minutes.
Method: as §2
The conditions of series [9]: cited from earlier work.
Where [10] appears, read: 1:1 octanol/water, shaken 12 hours, HPLC.
[11] abbreviates: 0.15 mM Diazoxide + 2.5 uM antidote.
Setting [12] is: 0.15 mM Diazoxide + 5 uM antidote.

Structures are written as SMILES. Where two headings read alike, the source gives them in different places.

Here are results for four molecules from US20140057877A1, “Therapeutic polyamine compositions and their synthesis” (priority 2002, published 2014).

Method for M. Luteus (ATCC 499732): as §2

On to `C[n+]1ccc(-c2cc[n+](C)cc2)cc1` [Paraquat], for which the “Mean % Survival” value with E. coli (ATCC 35150) (substance alone 0.5 mM) turned out to be 16%; in the series with E. coli (ATCC 35150) (substance alone 1 mM), 10%; with S. aureus (ATCC 29213) [1] (substance alone 0.5 mM, 60 minutes) it was 39%.

In the case of `NCCNCCCNCCN` [2,3,2-tetramine, 1,3-bis-[(2′-aminoethyl)-amino]propane], in series [2] (setting [10]), the “Log Partition Coefficient Octanol:Water” value is reported as 2.1. The “lipid water partitioning, in words” value in series [2] was “optimal lipid water partitioning”. Also, the “pKa(1)” value in series [3] stood at 10.3. The “pKa(2)” value in series [3] was 9.5. For the same molecule, the “pKa(3)” value in series [3] was determined as 7.3. Also, the “pKa(4)” value in series [3] is on record as 6.0. The “Mean % Survival” value with E. coli (ATCC 35150) (1.0 mM Paraquat + 1.0 mM antidote) is given as 100%; in the series on E. coli (ATCC 35150) (substance alone 1 mM) it was 100%; with S. aureus (ATCC 29213) [1] it was 78%; with S. aureus (ATCC 29213) [1] (0.5 mM Paraquat + 1 mM antidote, 60 minutes), 80%; in the series with S. aureus (ATCC 29213) [1] (substance alone 1 mM, 60 minutes), 100%; in the series with S. aureus (ATCC 29213) [4] (setting [11]), 65%. The “Mean % Survival” value in the series with S. aureus (ATCC 29213) [4] (setting [12]) was found to be 78%; in the series with S. aureus (ATCC 29213) [4] (0.15 mM Diazoxide + 10 uM antidote), 78%; in the series with S. aureus (ATCC 29213) [4] (0.15 mM Diazoxide + 20 uM antidote), 75%; in the series with S. aureus (ATCC 29213) [4] (substance alone 20 uM), 99%. In addition, the “prevention of MPTP induced dopamine loss, in words” value in series [5] is “prevent MPTP induced dopamine loss”.

A word on the pKa: it is the negative logarithm of the acid dissociation constant. As for `c1ccc(CNCCCNCc2ccccn2)nc1` [2,3,2-pyridine, (2-pyridylmethyl){3-[(2-pyridylmethyl)amino]propyl}amine], the logP at 12 h in series [2] (octanol/water (1:1), 1:1 octanol/water, shaken 12 hours, HPLC, read-out: Log Partition Coefficient Octanol:Water) was 2.7. Also, in series [2], the “lipid water partitioning, in words” value is “optimal lipid water partitioning”. The pKa stood at 8.3 in series [3] (read-out: pKa(1)) and 7.4 in series [3] (read-out: pKa(2)). The “Mean % Survival” value with S. aureus (ATCC 29213) [4] (setting [11]) is recorded as 61%; in the series with S. aureus (ATCC 29213) [4] (setting [12]) it was 84%; with S. aureus (ATCC 29213) [4] (substance alone 5 uM) it was 99%; in series [6] (100 uM Rotenone + 2.5 uM antidote) it was 100%; in series [6] (100 uM Rotenone + 5 uM antidote), 100%; in series [6] (100 uM Rotenone + 20 uM antidote), 100%. Also, the “Mean % Survival” value in [6] (100 uM Rotenone + 50 uM antidote) was determined as 100%; in series [6] (substance alone 50 uM) it was 100%; in series [7] (2 mM Alloxan + 10 uM antidote), 100%; in series [7] (substance alone 10 uM), 100%; in the series with M. Luteus (ATCC 499732) (0.2 mM Diazoxide + 2.5 uM antidote, T20), 96%; in the series with M. Luteus (ATCC 499732) (0.2 mM Diazoxide + 2.5 uM antidote, T60) it was 99%. Besides, the “Mean % Survival” value in the series on M. Luteus (ATCC 499732) (0.2 mM Diazoxide + 5 uM antidote, T20) is listed as 93%; with M. Luteus (ATCC 499732) (0.2 mM Diazoxide + 5 uM antidote, T60), 100%; in the series on M. Luteus (ATCC 499732) (0.2 mM Diazoxide + 10 uM antidote, T20) it was 100%; in the series with M. Luteus (ATCC 499732) (0.2 mM Diazoxide + 10 uM antidote, T60), 100%; in the series with M. Luteus (ATCC 499732) (0.2 mM Diazoxide + 20 uM antidote, T20), 100%; with M. Luteus (ATCC 499732) (0.2 mM Diazoxide + 20 uM antidote, T60) it was 100%. For the same molecule, the “Mean % Survival” value stood at 100% in the series on M. Luteus (ATCC 499732) (0.2 mM Diazoxide + 40 uM antidote, T20); 70% with M. Luteus (ATCC 499732) (0.2 mM Diazoxide + 40 uM antidote, T60); 100% with M. Luteus (ATCC 499732) (substance alone 40 uM, T20 (20 minutes)); 100% with M. Luteus (ATCC 499732) (substance alone 40 uM, T60 (60 minutes)); 100% in series [8] (100 uM Streptozotocin + 2.5 uM antidote); 100% in series [8] (100 uM Streptozotocin + 5 uM antidote). Moreover, the “Mean % Survival” value in [8] (100 uM Streptozotocin + 20 uM antidote) and in series [8] (substance alone 20 uM) was 100% each time.

Consider `NCCNCCNCCN` [2,2,2-tetramine, reference compound], for which the “Log Partition Coefficient Octanol:Water” value in series [2] (setting [10]) is listed as 1.6. The “lipid water partitioning, in words” value in series [2] is listed as “optimal lipid water partitioning”. Besides, in series [3], the “pKa(1)” value was found to be 9.7, the “pKa(2)” value was 9.1, the “pKa(3)” value turned out to be 6.6 and the “pKa(4)” value is reported as 3.3. Further, the “Mean % Survival” value in series [6] (100 mM Rotenone + 0.5 mM antidote) is 67%. The “Mean % Survival” value in series [6] (100 mM Rotenone + 2 mM antidote) was 100%. For the same molecule, the “Mean % Survival” value in [6] (substance alone 2 mM) was 100%. The “half life in vivo” value in [9] was “only a few hours”. Also, in series [9] (in vivo), the “metabolism and excretion, in words” value is “rapidly metabolized to acetyl 2,2,2-tetramine and rapidly excreted”.
